How the values were obtained:
GIRK1/4(T-V) = target: T1, GIRK1/4(T-V) (Homo sapiens, UniProt P48544+P48549, T94V); assay: TEVC in Xenopus oocytes, single mutant GIRK1/4(T-V); assay type: cell-based; conditions: GIRK1/4(T-V) single mutant
T1 construct: expressed in transfected cells; host or cells: Xenopus laevis oocytes (cRNA injection)
T1 sequence (P48549 1-501): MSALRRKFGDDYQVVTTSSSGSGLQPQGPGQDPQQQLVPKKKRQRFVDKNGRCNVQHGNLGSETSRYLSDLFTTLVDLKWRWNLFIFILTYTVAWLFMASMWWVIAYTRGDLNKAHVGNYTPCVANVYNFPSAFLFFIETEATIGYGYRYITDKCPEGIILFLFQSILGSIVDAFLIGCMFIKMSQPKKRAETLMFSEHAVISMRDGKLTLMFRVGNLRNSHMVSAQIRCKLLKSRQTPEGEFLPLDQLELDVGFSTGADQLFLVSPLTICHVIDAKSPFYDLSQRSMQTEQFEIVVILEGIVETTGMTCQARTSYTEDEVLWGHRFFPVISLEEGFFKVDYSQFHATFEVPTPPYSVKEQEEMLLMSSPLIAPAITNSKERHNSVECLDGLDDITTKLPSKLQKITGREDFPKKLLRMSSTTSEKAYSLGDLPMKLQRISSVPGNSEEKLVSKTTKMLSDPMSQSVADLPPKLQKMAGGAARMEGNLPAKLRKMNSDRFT
T1 sequence (P48544 1-419 T94V): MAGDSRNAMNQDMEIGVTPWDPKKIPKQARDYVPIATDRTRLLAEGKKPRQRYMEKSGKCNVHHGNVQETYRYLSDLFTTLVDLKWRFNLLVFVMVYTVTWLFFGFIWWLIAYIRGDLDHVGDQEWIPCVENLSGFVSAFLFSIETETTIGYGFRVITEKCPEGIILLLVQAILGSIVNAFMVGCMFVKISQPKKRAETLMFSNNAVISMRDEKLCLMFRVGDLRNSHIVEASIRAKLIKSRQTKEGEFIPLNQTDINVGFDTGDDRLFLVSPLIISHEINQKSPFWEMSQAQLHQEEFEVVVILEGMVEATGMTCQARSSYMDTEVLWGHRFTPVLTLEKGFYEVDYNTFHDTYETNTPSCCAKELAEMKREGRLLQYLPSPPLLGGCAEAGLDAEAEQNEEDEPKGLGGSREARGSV
Text: Molecular biology: For Xenopus oocyte expression, human GIRK1 and human GIRK4 cDNAs were subcloned into pGEMHE. For mammalian expression, human GIRK1 and human GIRK4 cDNAs were subcloned into pcDNA3 and pcDNA3.1/V5-His B, respectively (Invitrogen). Mouse GIRK2 cDNA was subcloned in the dual-function vector, pXoom. Point mutations were introduced using a standard Pfu-based mutagenesis technique according to the QuikChange protocol (Agilent). Mutations were verified by sequencing.
Electrophysiology of oocytes: Whole-oocyte currents were measured by conventional two-electrode voltage clamp (TEVC) with a GeneClamp 500 amplifier (Axon Instruments). Agarose cushion microelectrodes were filled with 1.5% (w/v) agarose in 3 M KCl and were used with resistances between 0.1 and 1.5 megaohms. […] Barium-sensitive basal currents from both groups, 1) Vehicle, 2) single concentration at 10 μM and 3) multiple concentrations of ML297 or GAT compounds in the presence of HK solution, were assessed at −80 mV using TEVC. Barium-sensitive currents were normalized to average basal current in the vehicle solutions. The HK solution contained the following: 96 mM KCl, 1 mM NaCl, 1 mM MgCl2, 5 mM KOH/HEPES, pH 7.4. The barium solution consisted of HK+10 mM BaCl2. Five to ten oocytes from the same batch (same frog) were recorded for each group, and the experiments were repeated in at least four batches. Data acquisition and analysis were carried out using pClamp9 (Molecular Devices) and OriginPro (Microcal) software.
To test these computational predictions, the inventors mutated each or both of the two M1 key wild-type GIRK4 subunit residues to the corresponding GIRK2 residues (GIRK4-V92I, GIRK4-T94V, GIRK4-V92I/T94V or GIRK4-dm) and vice-versa the GIRK2 residues to the corresponding GIRK4 ones (GIRK2-I97V, GIRK2-V99T, GIRK2-I97V/V99T or GIRK2-dm) (FIG. 35). […]

[1] = target: human ERG (hERG) channels (Homo sapiens, UniProt Q12809); conditions: 5 µM
Protocol: In FIG. 52A, human ERG (hERG) channels were expressed in Xenopus oocytes and studied by two-electrode voltage clamp (TEVC). In FIG. 52A, hERG tail-current magnitude was assessed at −50 mV, following a 4 second test step to 20 mV from a holding voltage of −100 mV. The test pulse was repeated every 10-seconds. […] Two-electrode voltage-clamp and data analysis: Whole-oocyte currents were measured by two-electrode voltage clamp (TEVC) with GeneClamp 500 (Molecular Devices), or TEC-03X (NPI) amplifiers. […] The oocytes were bathed in ND96 recording solution comprising, in mM: KCl 2, NaCl 96, MgCl2 1 and HEPES 5, buffered to pH 7.4 with KOH. Where indicated, GIRK channel currents were assessed in a high K^+ recording solution comprising, in mM: KCl 96, NaCl 2, MgCl2 1 and HEPES 5, buffered to pH 7.4 with KOH. Currents were digitized using a USB interface (National Instruments) and recorded using WinWCP software (University of Strathclyde). To study GIRK channels, oocytes were held at 0 mV, and currents were assessed by 100 ms ramps from −80 to +80 mV that were repeated every second. The effect of the reagents was determined at −80 mV, then the channels were blocked by 5 mM BaCl2. Block was expressed as the percent-current block normalized to the maximum current. Between 8-12 oocytes from different Xenopus frogs were studied per experiment.

Sequence of human ERG (hERG) channels (Q12809 whole entry): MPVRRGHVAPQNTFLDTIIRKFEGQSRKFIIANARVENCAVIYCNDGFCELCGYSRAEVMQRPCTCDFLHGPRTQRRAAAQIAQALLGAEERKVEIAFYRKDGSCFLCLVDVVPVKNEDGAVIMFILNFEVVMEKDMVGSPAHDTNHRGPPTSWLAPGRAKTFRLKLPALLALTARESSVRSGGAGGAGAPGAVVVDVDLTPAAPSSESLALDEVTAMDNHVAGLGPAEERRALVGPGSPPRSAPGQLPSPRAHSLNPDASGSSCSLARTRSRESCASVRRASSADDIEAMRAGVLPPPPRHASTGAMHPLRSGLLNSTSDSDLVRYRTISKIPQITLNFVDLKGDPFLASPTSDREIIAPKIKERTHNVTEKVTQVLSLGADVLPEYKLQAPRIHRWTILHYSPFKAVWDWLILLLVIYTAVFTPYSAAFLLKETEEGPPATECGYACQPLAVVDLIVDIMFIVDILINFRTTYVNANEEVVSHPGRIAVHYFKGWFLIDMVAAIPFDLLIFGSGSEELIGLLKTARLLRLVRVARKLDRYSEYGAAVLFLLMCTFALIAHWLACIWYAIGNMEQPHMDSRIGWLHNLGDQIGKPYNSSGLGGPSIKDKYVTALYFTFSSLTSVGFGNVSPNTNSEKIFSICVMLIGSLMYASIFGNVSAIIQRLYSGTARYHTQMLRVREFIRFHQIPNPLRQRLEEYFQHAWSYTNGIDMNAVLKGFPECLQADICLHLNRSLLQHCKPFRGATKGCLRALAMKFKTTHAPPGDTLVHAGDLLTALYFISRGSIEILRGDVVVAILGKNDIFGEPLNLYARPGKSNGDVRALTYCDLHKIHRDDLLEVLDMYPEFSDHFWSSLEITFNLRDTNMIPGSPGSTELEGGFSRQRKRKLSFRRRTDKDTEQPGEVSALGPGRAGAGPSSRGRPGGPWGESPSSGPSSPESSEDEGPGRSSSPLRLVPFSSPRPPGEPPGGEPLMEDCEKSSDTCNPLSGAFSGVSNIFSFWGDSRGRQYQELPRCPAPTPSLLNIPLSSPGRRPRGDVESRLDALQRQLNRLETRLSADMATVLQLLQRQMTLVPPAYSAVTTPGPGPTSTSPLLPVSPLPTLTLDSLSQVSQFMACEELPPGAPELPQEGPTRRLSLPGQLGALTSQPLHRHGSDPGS

| Compound | EC50 (GIRK1/4(T-V)) | EMAX (GIRK1/4(T-V)) | Emax (GIRK1/4(T-V); read-out: EMAX, % of the control GIRK1/2) | inhibition of the hERG tail current [1] |
| --- | --- | --- | --- | --- |
| Cc1cc(NC(=O)Nc2ccc(Br)s2)n(-c2ccccc2)n1 [GAT1508, 1-(5-bromothiophen-2-yl)-3-(3-methyl-1-phenyl-1H-pyrazol-5-yl)urea] | 500 ± 470 nM | 1.12±0.03 | 7% |  |
| Cc1cc(NC(=O)Nc2ccc(F)c(F)c2)n(-c2ccccc2)n1 [ML297, reference compound] |  |  |  | ~40% |

— patent US12351574B2, “Selective ligands for modulation of GIRK channels” (Northeastern University, priority 2018, dated 2025)
